The text below walks through data of patent US10646572B2, “Pharmaceutical compositions with enhanced stability” (Foresee Pharmaceuticals Co., Ltd., priority 2006, dated 2020).

What is called Cmax is the maximum level reached in the sampled fluid or tissue.

Data set [1] is classed as physicochemical. The source says: (§1) The injectable compositions were filled into 1.2 mlL polypropylene syringes with luer-lock tips. […] The injectable composition was sampled at pre-defined time points.
The conditions of data set [2]: NMP.
Procedure: Poly(DL-lactide-co-glycolide) (PLGA) of an 85/15 ratio of lactide to glycolide (DLPLG85/15, IV: 0.28) with a lauryl ester end group was dissolved in N- methyl-2-pyrrolidone (NMP) to give a 50% solution by weight. The leuprolide salts were mixed with the PLGA solution in NMP to give a uniform injectable composition at ratios shown in the Table 1. The injectable compositions were filled into 1.2 mL polypropylene syringes with luer-lock tips. Then the pre-filled syringes were sealed using luer-lock caps. The capped syringes were packaged in a container and sealed in a plastic bag under vacuum and then stored at 4° C. and room temperature (˜22° C.) for up to 18 months. The injectable composition was sampled at 24 h, 1, 2, 3, 6, 12, and 18 month time points. […] Molecular weight of the polymer was determined by gel permeation chromatography (GPC) using polystyrene standards with known molecular weights.
Data set [3] is described as follows: Molecular weight of PLGA in PLGA/DMSO injectable compositions (GPC). The conditions noted are these: DMSO, 4° C., after 16 months. It counts as physicochemical.
Source text: as §1

The next data set is described as follows: in vivo. Also on record: species or system rats. The conditions noted are these: rat, sc. The procedure:
Each formulation was then injected into the rats subcutaneously at a volume of about 100 μL with 6 animals per group. The serum samples were collected from each animal at 3 hour, 1, 3, 7, 14, 28, 42, 56, and 70 days post injection. The serum samples were analyzed for leuprolide concentration by ELISA using the kits available from Peninsula Laboratories Inc. The leuprolide remaining in the implants at various times was analyzed by HPLC.

Data set [4] is described as follows: In vitro release of leuprolide from injectable polymeric formulations (Example 10). It counts as physicochemical. The conditions noted are these: 6% by weight in PLGA/NMP, PBS pH 7.4, 37° C., FIG. 3. How it is done: Three polymer vehicle solutions were prepared as following: PLG 85/15 (0.28 IV) with a lauryl ester end group was dissolved in NMP at 50% and 55% by weight, and RG503 (0.42 IV) with a carboxylic acid end group was dissolved in NMP at 50% by weight. Then suitable amount of leuprolide hydrochloride (LAHCl) and leuprolide mesylate (LAMS) were mixed with the polymer solutions at 6% by weight each. The formulations were thoroughly mixed to obtain uniform formulations.
An aliquot of the formulation suspension (about 100 mg) was injected into in 3 mL phosphate buffer saline solution at pH 7.4 with 0.1% sodium azide at 37° C. The receiving fluid was replaced at selected time points with fresh buffer solution, and the removed buffer solution diluted 2-fold with phosphate buffer at pH 7.4 was analyzed for drug concentration by HPLC. The amount released at each time point was calculated.

The conditions of data set [5]: cited from earlier work.
Data set [6] can be described thus: Effect of Vitamin E TPGS on in vitro release of leuprolide (Example 11). The format is physicochemical. Particulars: LAHCl 15% in PLA 100DLPL/NMP, PBS pH 7.4, 37° C., FIG. 4. How it is done:
The polymer vehicle solutions with and without excipients were prepared as following: PLA 100DLPL (0.26 IV, Lakeshore, Ala.) with a lauryl ester end group and Vitamin E TPGS were dissolved in NMP at suitable amount according to the Table 7. Then suitable amount of leuprolide hydrochloride (LAHCl) was mixed with the polymer solutions at 15% by weight. The formulations were thoroughly mixed to obtain uniform formulations.
An aliquot of the formulation suspension (about 100 mg) was injected into in 3 mL phosphate buffer saline solution at pH 7.4 with 0.1% sodium azide at 37° C. The receiving fluid was replaced at selected time points with fresh buffer solution, and the removed buffer solution diluted 10-fold with PBS at pH 7.4 was analyzed for drug concentration by HPLC. The amount released at each time point was calculated.

Structures can show the parent of a compound that is named as a salt. Where two headings read alike, the source gives them in different places.

With `CCNC(=O)[C@@H]1CCCN1C(=O)[C@H](CCCNC(=N)N)NC(=O)[C@H](CC(C)C)NC(=O)[C@@H](CC(C)C)NC(=O)[C@H](Cc1ccc(O)cc1)NC(=O)[C@H](CO)NC(=O)[C@H](Cc1c[nH]c2ccccc12)NC(=O)[C@H](Cc1c[nH]cn1)NC(=O)[C@@H]1CCC(=O)N1` [leuprolide acetate, Leuprolide acetate, reference compound], in data set [1], the leuprolide degraded entry is “Up to 20%”. Moreover, the “decrease of molecular weight of PLGA comparing to blank control” value in data set [2] (4° C., after 6 months) is recorded as “more than 10%”; in data set [3], “about 40%”.
For `CCNC(=O)[C@@H]1CCCN1C(=O)[C@H](CCCNC(=N)N)NC(=O)[C@H](CC(C)C)NC(=O)[C@@H](CC(C)C)NC(=O)[C@H](Cc1ccc(O)cc1)NC(=O)[C@H](CO)NC(=O)[C@H](Cc1c[nH]c2ccccc12)NC(=O)[C@H](Cc1c[nH]cn1)NC(=O)[C@@H]1CCC(=O)N1` [leuprolide hydrochloride, Leuprolide Hydrochloride], the leuprolide degraded result in data set [1] is recorded as “less than 5%”. Besides, the “molecular weight of PLGA versus blank control” value in data set [2] (both 4° C. and RT, after 12 months) is “the same as that of the blank control”. The “time at which Cmax was reached” value in the data set “in vivo” was 3 h. The Cmax in the data set “in vivo” (Cmax (serum leuprolide)) is 662 ng/mL. For the same molecule, the “molecular weight of PLGA versus control” value in data set [3] is given as “comparable to that of the control”. Also, in data set [4], the “leuprolide release, LAHCl versus LAMS” value is “no significant difference”.
Turning to `CCNC(=O)[C@@H]1CCCN1C(=O)[C@H](CCCNC(=N)N)NC(=O)[C@H](CC(C)C)NC(=O)[C@@H](CC(C)C)NC(=O)[C@H](Cc1ccc(O)cc1)NC(=O)[C@H](CO)NC(=O)[C@H](Cc1c[nH]c2ccccc12)NC(=O)[C@H](Cc1c[nH]cn1)NC(=O)[C@@H]1CCC(=O)N1` [leuprolide mesylate, Leuprolide Mesylate], in data set [1], the leuprolide degraded result is on record as “less than 5%”. For the same molecule, in “in vivo”, the “Cmax (serum leuprolide)” value amounted to 370.6 ng/mL and the “time at which Cmax was reached” value was 3 h.
On to `C[C@@H](O)[C@@H]1NC(=O)[C@H](CCCCN)NC(=O)[C@@H](Cc2c[nH]c3ccccc23)NC(=O)[C@H](Cc2ccccc2)NC(=O)[C@@H](NC(=O)[C@H](N)Cc2ccccc2)CSSC[C@@H](C(=O)N[C@H](CO)[C@@H](C)O)NC1=O` [octreotide acetate], for which the octreotide acylated result in data set [5] (combined with polylactide-co-glicolide solution in NMP, within 5 hours) is on record as “more than 40%”. Besides, in data set [5] (polylactide-co-glicolide solution in NMP, within the same time period (5 hours)), the “molecular weight of the polymer” value is listed as “decreased significantly”.
Consider Vitamin E TPGS, for which, in data set [6], the “effect on initial burst” value is listed as “did not affect the initial burst” and the “effect on release rate of leuprolide at later stages” value was “seemed to reduce the release rate of leuprolide at later stages”.
